Legend:
Type in all cases: in vivo
[1] = tested on: oat, wild (wild oat Avena fatua); assay: Test C postemergence, plant response rating; conditions: for Oat, Wild plant response rating: scale 0 to 100 (0 no effect, 100 complete control)
Summary of the method: (§1)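 Preemergence: seeds sown in loam–sand blend or silt loam and sprayed with test chemicals in a non-phytotoxic surfactant-containing solvent. Postemergence: potted plants at 2–18 cm (1–4-leaf stage) sprayed with the same formulation. After 13–15 d in greenhouse, visual rating versus controls on 0 (no effect) to 100 (complete control) scale.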

[2] = tested on: chickweed (common chickweed, Stellaria media); assay: Test C postemergence, plant response rating; conditions: for Chickweed plant response rating: scale 0 to 100 (0 no effect, 100 complete control)
Summary of the method: as §1

[3] = tested on: waterhemp (common waterhemp, Amaranthus rudis); assay: Test C postemergence, plant response rating; conditions: for Waterhemp plant response rating: 125 g ai/ha, scale 0 to 100 (0 no effect, 100 complete control)
Summary of the method: as §1

soybean (Glycine max) = assay: Test C postemergence, plant response rating; conditions: for Soybean plant response rating: scale 0 to 100 (0 no effect, 100 complete control)
Summary of the method: as §1

[4] = tested on: lambsquarters (Chenopodium album); assay: Test C postemergence, plant response rating; conditions: for Lambsquarters plant response rating: scale 0 to 100 (0 no effect, 100 complete control)
Summary of the method: as §1

[5] = tested on: foxtail, giant (giant foxtail, Setaria faberii); assay: Test C postemergence, plant response rating; conditions: for Foxtail, Giant plant response rating: scale 0 to 100 (0 no effect, 100 complete control)
Summary of the method: as §1

[6] = tested on: velvetleaf (Abutilon theophrasti); assay: Test C postemergence, plant response rating; conditions: for Velvetleaf plant response rating: 125 g ai/ha, scale 0 to 100 (0 no effect, 100 complete control)
Summary of the method: as §1

[7] = tested on: ragweed (common ragweed, Ambrosia elatior); assay: Test C postemergence, plant response rating; conditions: for Ragweed plant response rating: scale 0 to 100 (0 no effect, 100 complete control)
Summary of the method: as §1

[8] = tested on: ryegrass, Italian (Italian ryegrass, Lolium multiflorum); assay: Test C postemergence, plant response rating; conditions: for Ryegrass, Italian plant response rating: scale 0 to 100 (0 no effect, 100 complete control)
Summary of the method: as §1

[9] = tested on: blackgrass (Alopecurus myosuroides); assay: Test A postemergence, visual injury rating
Summary of the method: (§2)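 Injury scores run from 0, no effect, to 100, complete control, judged by eye against untreated plants roughly 10 days after treatment. Chemicals carried a surfactant in a non-phytotoxic solvent and went onto loam–sand soil preemergence or onto one- to two-leaf seedlings postemergence.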

[10] = tested on: Italian ryegrass (Lolium multiflorum); assay: Test A postemergence, visual injury rating
Summary of the method: as §2

[11] = tested on: pigweed (Amaranthus retroflexus); assay: Test A postemergence, visual injury rating
Summary of the method: as §2

[12] = tested on: giant foxtail (Setaria faberii); assay: Test A postemergence, visual injury rating
Summary of the method: as §2

[13] = tested on: barnyardgrass (Echinochloa crus-galli); assay: Test A postemergence, visual injury rating; conditions: 0 is no effect, 100 is complete control; for Barnyardgrass plant response rating: 0 to 100 scale, approximately 10 days
Summary of the method: as §2

kochia (Kochia scoparia) = assay: Test A postemergence, visual injury rating
Summary of the method: as §2

[14] = tested on: wheat (Triticum aestivum); assay: Test A postemergence, visual injury rating
Summary of the method: as §2

corn (Zea mays) = assay: Test A postemergence, visual injury rating
Summary of the method: as §2

[15] = tested on: galium (catchweed bedstraw, Galium aparine); assay: Test A postemergence, visual injury rating
Summary of the method: as §2

[16] = tested on: ragweed (common ragweed, Ambrosia elatior); assay: Test A postemergence, visual injury rating
Summary of the method: as §2

[17] = 31 g ai/ha, 0 to 100 scale (0 no effect, 100 complete control)
[18] = 125 g ai/ha, 0 to 100 scale, 0 is no effect, 100 is complete control, approximately 10 days
[19] = 500 g ai/ha, 0 is no effect, 100 is complete control

Which “Plant response rating, Oat, Wild” value ([1]; 16 g ai/ha, scale of 0 to 100) does the source give for FC(F)(F)CCCCc1c(Br)cccc1Oc1ncc(Cl)cn1 [Compound 138] here?
The value was 10.

What about the “Plant response rating, Oat, Wild” value ([1]; 31 g ai/ha, scale 0 to 100) of the same compound?
Its value is 55.

What about the “Oat, Wild plant response rating” value ([1]; 62 g ai/ha) of the same compound?
Its value is 50.

And the “Oat, Wild plant response rating” value ([1]; 125 g ai/ha)?
The value was 70.

What about the “Plant response rating, Chickweed” value ([2]; 16 g ai/ha, scale of 0 to 100) of the same compound?
The value was 75.

And the “Plant response rating, Chickweed” value ([2]; 31 g ai/ha, scale 0 to 100)?
Its value is 85.

What about the “Chickweed plant response rating” value ([2]; 62 g ai/ha) of the same compound?
The value was 100.

And the “Chickweed plant response rating” value ([2]; 125 g ai/ha)?
Its value is 100.

What about the “Plant response rating, Waterhemp” value ([3]; 16 g ai/ha, scale of 0 to 100) of the same compound?
Its value is 98.

What about the “Plant response rating, Waterhemp” value ([3]; 31 g ai/ha, scale 0 to 100) of the same compound?
Its value is 98.

And the “Waterhemp plant response rating” value [3]?
The value was 100.

And the “Plant response rating, Soybean” value (soybean (Glycine max); 16 g ai/ha, scale of 0 to 100)?
Its value is 35.

What about the “Plant response rating, Soybean” value (soybean (Glycine max); 31 g ai/ha, scale 0 to 100) of the same compound?
The value was 55.

What about the “Soybean plant response rating” value (soybean (Glycine max); 62 g ai/ha) of the same compound?
The value was 60.

What about the “Soybean plant response rating” value (soybean (Glycine max); 125 g ai/ha) of the same compound?
Its value is 55.

What about the “Plant response rating, Lambsquarters” value ([4]; 16 g ai/ha, scale of 0 to 100) of the same compound?
Its value is 65.

What about the “Plant response rating, Lambsquarters” value ([4]; 31 g ai/ha, scale 0 to 100) of the same compound?
The value was 90.

And the “Lambsquarters plant response rating” value ([4]; 62 g ai/ha)?
Its value is 95.

And the “Lambsquarters plant response rating” value ([4]; 125 g ai/ha)?
Its value is 100.

What about the “Plant response rating, Foxtail, Giant” value ([5]; 16 g ai/ha, scale of 0 to 100) of the same compound?
Its value is 10.

What about the “Plant response rating, Foxtail, Giant” value ([5]; 31 g ai/ha, scale 0 to 100) of the same compound?
The value was 20.

And the “Foxtail, Giant plant response rating” value ([5]; 62 g ai/ha)?
Its value is 30.

And the “Foxtail, Giant plant response rating” value ([5]; 125 g ai/ha)?
Its value is 65.

And the “Plant response rating, Velvetleaf” value ([6]; 16 g ai/ha, scale of 0 to 100)?
Its value is 10.

And the “Plant response rating, Velvetleaf” value ([6]; 31 g ai/ha, scale 0 to 100)?
The value was 35.

And the “Velvetleaf plant response rating” value [6]?
The value was 75.

What about the “Plant response rating, Ragweed” value ([7]; 16 g ai/ha, scale of 0 to 100) of the same compound?
Its value is 0.

What about the “Plant response rating, Ragweed” value ([7]; 31 g ai/ha, scale 0 to 100) of the same compound?
Its value is 30.

And the “Ragweed plant response rating” value ([7]; 62 g ai/ha)?
Its value is 35.

And the “Ragweed plant response rating” value ([7]; 125 g ai/ha)?
Its value is 75.

And the “Plant response rating, Ryegrass, Italian” value ([8]; 16 g ai/ha, scale of 0 to 100)?
The value was 5.

And the “Plant response rating, Ryegrass, Italian” value ([8]; 31 g ai/ha, scale 0 to 100)?
The value was 5.

And the “Ryegrass, Italian plant response rating” value ([8]; 62 g ai/ha)?
The value was 30.

What about the “Ryegrass, Italian plant response rating” value ([8]; 125 g ai/ha) of the same compound?
Its value is 35.

And the “Blackgrass plant response rating” value [9, 17]?
The value was 40.

What about the “Blackgrass plant response rating” value [9, 18] of the same compound?
Its value is 90.

What about the “Ryegrass, Italian plant response rating” value [10, 17] of the same compound?
Its value is 30.

What about the “Ryegrass, Italian plant response rating” value [10, 18] of the same compound?
The value was 100.

And the “Pigweed plant response rating” value [11, 17]?
The value was 100.

What about the “Pigweed plant response rating” value [11, 18] of the same compound?
Its value is 100.

And the “Foxtail, Giant plant response rating” value [12, 17]?
Its value is 90.

And the “Foxtail, Giant plant response rating” value [12, 18]?
Its value is 90.

What about the “Barnyardgrass plant response rating” value ([13]; 31 g ai/ha) of the same compound?
Its value is 90.

And the “Barnyardgrass plant response rating” value ([13]; 125 g ai/ha)?
Its value is 90.

And the “Kochia plant response rating” value (kochia (Kochia scoparia); [17])?
Its value is 90.

What about the “Kochia plant response rating” value (kochia (Kochia scoparia); [18]) of the same compound?
Its value is 100.

What about the “Wheat plant response rating” value [14, 17] of the same compound?
The value was 20.

And the “Wheat plant response rating” value [14, 18]?
The value was 40.

And the “Corn plant response rating” value (corn (Zea mays); [17])?
The value was 30.

And the “Corn plant response rating” value (corn (Zea mays); [18])?
Its value is 60.

What about the “Galium plant response rating” value [15, 17] of the same compound?
The value was 70.

And the “Galium plant response rating” value [15, 18]?
The value was 100.

What about the “Ragweed plant response rating” value [16, 17] of the same compound?
The value was 30.

And the “Ragweed plant response rating” value [16, 18]?
The value was 60.

Which results are given for CCCCC(=O)c1c(Oc2ncc(Cl)cn2)cccc1C(F)(F)F [Compound 130]?
Plant response rating, Oat, Wild ([1]; 16 g ai/ha, scale of 0 to 100): 5; Plant response rating, Oat, Wild ([1]; 31 g ai/ha, scale 0 to 100): 10; Oat, Wild plant response rating ([1]; 62 g ai/ha): 15; Oat, Wild plant response rating ([1]; 125 g ai/ha): 15; Plant response rating, Chickweed ([2]; 16 g ai/ha, scale of 0 to 100): 75; Plant response rating, Chickweed ([2]; 31 g ai/ha, scale 0 to 100): 75; Chickweed plant response rating ([2]; 62 g ai/ha): 80; Chickweed plant response rating ([2]; 125 g ai/ha): 90; Plant response rating, Waterhemp ([3]; 16 g ai/ha, scale of 0 to 100): 65; Plant response rating, Waterhemp ([3]; 31 g ai/ha, scale 0 to 100): 75; Waterhemp plant response rating [3]: 85; Plant response rating, Soybean (soybean (Glycine max); 16 g ai/ha, scale of 0 to 100): 40; Plant response rating, Soybean (soybean (Glycine max); 31 g ai/ha, scale 0 to 100): 55; Soybean plant response rating (soybean (Glycine max); 62 g ai/ha): 75; Soybean plant response rating (soybean (Glycine max); 125 g ai/ha): 95; Plant response rating, Lambsquarters ([4]; 16 g ai/ha, scale of 0 to 100): 75; Plant response rating, Lambsquarters ([4]; 31 g ai/ha, scale 0 to 100): 90; Lambsquarters plant response rating ([4]; 62 g ai/ha): 85; Lambsquarters plant response rating ([4]; 125 g ai/ha): 95; Plant response rating, Foxtail, Giant ([5]; 16 g ai/ha, scale of 0 to 100): 10; Plant response rating, Foxtail, Giant ([5]; 31 g ai/ha, scale 0 to 100): 10; Foxtail, Giant plant response rating ([5]; 62 g ai/ha): 10; Foxtail, Giant plant response rating ([5]; 125 g ai/ha): 30; Plant response rating, Velvetleaf ([6]; 16 g ai/ha, scale of 0 to 100): 25; Plant response rating, Velvetleaf ([6]; 31 g ai/ha, scale 0 to 100): 45; Velvetleaf plant response rating [6]: 75; Plant response rating, Ragweed ([7]; 16 g ai/ha, scale of 0 to 100): 25; Plant response rating, Ragweed ([7]; 31 g ai/ha, scale 0 to 100): 45; Ragweed plant response rating ([7]; 62 g ai/ha): 55; Ragweed plant response rating ([7]; 125 g ai/ha): 50; Plant response rating, Ryegrass, Italian ([8]; 16 g ai/ha, scale of 0 to 100): 5; Plant response rating, Ryegrass, Italian ([8]; 31 g ai/ha, scale 0 to 100): 10; Ryegrass, Italian plant response rating ([8]; 62 g ai/ha): 10; Ryegrass, Italian plant response rating ([8]; 125 g ai/ha): 15; Blackgrass plant response rating [9, 18]: 50; Blackgrass plant response rating (0 to 100 scale) [9, 19]: 90; Ryegrass, Italian plant response rating [10, 18]: 20; Ryegrass, Italian plant response rating (0 to 100 scale) [10, 19]: 90; Pigweed plant response rating [11, 18]: 100; Pigweed plant response rating (0 to 100 scale) [11, 19]: 100; Foxtail, Giant plant response rating [12, 18]: 40; Foxtail, Giant plant response rating (0 to 100 scale) [12, 19]: 90; Barnyardgrass plant response rating ([13]; 125 g ai/ha): 90; Barnyardgrass plant response rating (0 to 100 scale) ([13]; 500 g ai/ha): 100; Kochia plant response rating (kochia (Kochia scoparia); [18]): 100; Kochia plant response rating (0 to 100 scale) (kochia (Kochia scoparia); [19]): 100; Wheat plant response rating [14, 18]: 30; Wheat plant response rating (0 to 100 scale) [14, 19]: 30; Corn plant response rating (corn (Zea mays); [18]): 20; Corn plant response rating (0 to 100 scale) (corn (Zea mays); [19]): 50; Galium plant response rating [15, 18]: 100; Galium plant response rating (0 to 100 scale) [15, 19]: 100; Ragweed plant response rating [16, 18]: 30; Ragweed plant response rating (0 to 100 scale) [16, 19]: 60
